Values quoted from earlier work as cited in paper PMC11088877, “AMP-activated protein kinase can be allosterically activated by ADP but AMP remains the key activating ligand” (Biochemical Journal, 2024).

Molecular target: bacterially expressed AMPK heterotrimers (γ subunit CBS sites)
Conditions: in the presence of Mg2+ and staurosporine; read-out: estimated Kd at the CBS3 site; cited from earlier work

Nc1ncnc2c1ncn2[C@@H]1O[C@H](COP(=O)(O)OP(=O)(O)OP(=O)(O)O)[C@@H](O)[C@H]1O [ATP]
Kd: 100 to 500 µM
